Data reported in the NIST ThermoML archive (doi:10.1021/je700260f).

Details: 313.15 K, Liquid, Vibrating tube method

FC(C(F)(F)F)C(F)(F)F [1,1,1,2,3,3,3-heptafluoropropane]
Details | mass density [kg/m3]
6459 kPa | 1373.4
6490 kPa | 1373.6
6518 kPa | 1373.8
6545 kPa | 1374
6574 kPa | 1374.3
6602 kPa | 1374.5
6638 kPa | 1374.7
6666 kPa | 1374.8
6694 kPa | 1375.2
6718 kPa | 1375.4
6751 kPa | 1375.5
6776 kPa | 1375.7
6806 kPa | 1376
6835 kPa | 1376
6863 kPa | 1376.4
6883 kPa | 1376.7
6908 kPa | 1376.8
6938 kPa | 1376.9
6976 kPa | 1377.1
7006 kPa | 1377.4
7045 kPa | 1377.7
7079 kPa | 1377.9
7109 kPa | 1378.2
7139 kPa | 1378.3
7169 kPa | 1378.7
7198 kPa | 1378.8
7228 kPa | 1379
7266 kPa | 1379.4
7292 kPa | 1379.5
7326 kPa | 1379.7
7348 kPa | 1379.9
7382 kPa | 1380.1
7408 kPa | 1380.3
7438 kPa | 1380.5
7465 kPa | 1380.7
7501 kPa | 1380.9
7527 kPa | 1381.2
7556 kPa | 1381.4
7582 kPa | 1381.6
7612 kPa | 1381.8
7638 kPa | 1382.1
7677 kPa | 1382.3
7703 kPa | 1382.3
7742 kPa | 1382.8
7768 kPa | 1382.8
7798 kPa | 1383
7824 kPa | 1383.2
7851 kPa | 1383.5
7874 kPa | 1383.6
7910 kPa | 1383.8
7931 kPa | 1383.9
7958 kPa | 1384.2
7993 kPa | 1384.3
8020 kPa | 1384.6
8059 kPa | 1384.9
8094 kPa | 1385
8129 kPa | 1385.4
8156 kPa | 1385.5
8196 kPa | 1385.9
8223 kPa | 1386
8263 kPa | 1386.4
8295 kPa | 1386.4
8331 kPa | 1386.7
8367 kPa | 1387
8399 kPa | 1387.1
8430 kPa | 1387.3
8461 kPa | 1387.6
8497 kPa | 1387.9
8523 kPa | 1388.2
8564 kPa | 1388.3
8622 kPa | 1388.8
8654 kPa | 1388.8
8689 kPa | 1389.1
8720 kPa | 1389.4
8766 kPa | 1389.7
8798 kPa | 1390
8834 kPa | 1390.1
8861 kPa | 1390.3
8887 kPa | 1390.6
8915 kPa | 1390.6
8943 kPa | 1390.9
8979 kPa | 1391.1
9019 kPa | 1391.5
9044 kPa | 1391.5
9072 kPa | 1391.7
9097 kPa | 1391.9
9130 kPa | 1392.1
9160 kPa | 1392.2
9179 kPa | 1392.3
9214 kPa | 1392.6
9236 kPa | 1392.7
9263 kPa | 1393
9286 kPa | 1393.1
9320 kPa | 1393.4
9340 kPa | 1393.4
9367 kPa | 1393.6
9393 kPa | 1393.8
9419 kPa | 1394
9443 kPa | 1394
9465 kPa | 1394.3
9495 kPa | 1394.3
9518 kPa | 1394.6
9544 kPa | 1394.8
9564 kPa | 1394.9
9591 kPa | 1395
9619 kPa | 1395.3
9823 kPa | 1396.6
9856 kPa | 1396.8
9892 kPa | 1397
9921 kPa | 1397.3
9953 kPa | 1397.4
9987 kPa | 1397.4
10010 kPa | 1397.7
10062 kPa | 1398.1
10094 kPa | 1398.2
10123 kPa | 1398.4
10151 kPa | 1398.5
10183 kPa | 1398.9
10211 kPa | 1399.1
10247 kPa | 1399.1
10272 kPa | 1399.3
10301 kPa | 1399.5
10332 kPa | 1399.8
10361 kPa | 1400
10389 kPa | 1400
10421 kPa | 1400.3
10450 kPa | 1400.4
10482 kPa | 1400.8
10519 kPa | 1401
10547 kPa | 1401.1
10580 kPa | 1401.3
10609 kPa | 1401.5
10646 kPa | 1401.7
10680 kPa | 1401.9
10709 kPa | 1402.1
10743 kPa | 1402.3
10780 kPa | 1402.5
10813 kPa | 1402.7
10838 kPa | 1402.9
10871 kPa | 1403.1
10899 kPa | 1403.2
10928 kPa | 1403.5
10956 kPa | 1403.5
10981 kPa | 1403.7
11015 kPa | 1404.1
11048 kPa | 1404.2
11069 kPa | 1404.4
11102 kPa | 1404.4
11127 kPa | 1404.6
11164 kPa | 1404.9
11193 kPa | 1405
11222 kPa | 1405.3
11252 kPa | 1405.4
11278 kPa | 1405.5
11317 kPa | 1405.7
11360 kPa | 1405.9
11399 kPa | 1406.3
11424 kPa | 1406.4
11461 kPa | 1406.5
11486 kPa | 1406.8
11518 kPa | 1406.9
11544 kPa | 1407.2
11578 kPa | 1407.4
11628 kPa | 1407.6
11692 kPa | 1408
11726 kPa | 1408.2
11751 kPa | 1408.3
11788 kPa | 1408.5
11818 kPa | 1408.8
11860 kPa | 1408.9
11889 kPa | 1409.2
11927 kPa | 1409.3
11969 kPa | 1409.5
11998 kPa | 1409.7
12023 kPa | 1409.9
12048 kPa | 1410.1
12069 kPa | 1410.1
12099 kPa | 1410.3
12128 kPa | 1410.6
12165 kPa | 1410.9
12206 kPa | 1410.9
12231 kPa | 1411.1
12265 kPa | 1411.4
12294 kPa | 1411.4
12323 kPa | 1411.6
12344 kPa | 1411.8
12373 kPa | 1411.9
12407 kPa | 1412.1
12448 kPa | 1412.4
12477 kPa | 1412.4
12510 kPa | 1412.8
12532 kPa | 1412.9
12565 kPa | 1413.1
12616 kPa | 1413.4
12650 kPa | 1413.4
12689 kPa | 1413.8
12723 kPa | 1413.9
12749 kPa | 1414.1
12786 kPa | 1414.2
12813 kPa | 1414.5
12852 kPa | 1414.7
12888 kPa | 1414.9
12924 kPa | 1415.1
12959 kPa | 1415.3
12986 kPa | 1415.4
